Experimental data as given in patent publication US12459951B2, “Compounds that interact with RAS superfamily proteins for treatment of cancers, inflammatory diseases, rasopathies, and fibrotic disease” (SHY Therapeutics, LLC, priority 2022, dated 2025).

Key:
Erk1/2 phosphorylation = assay: Erk1/2 Phosphorylation Assay (western blot), Panc-1; assay type: cell-based, human; conditions: at 10 μM, * = activation
Method in brief: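 Phospho-Erk1/2 (Thr202/Tyr204) was detected by western blot in lysates of Panc-1 cells (KRas G12D). These had 6 h, 37° C exposure to 10 μM compound or a dilution series for IC50, in 0.3% DMSO. Cells were either starved overnight in 0.5% FBS with a 15-min 1.5 ng/ml EGF pulse, or kept unstimulated in 10% FBS.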

TNF-alpha = TNF-alpha Quantification Assay (ELISA), LPS-stimulated RAW 264.7; assay type: cell-based; conditions: Mus musculus, RAW264.7; at 10 μM; read-out: TNFα: % inh.
KRas G12C mutant = assay: Ras GTP Binding Domain Inhibition Assay (Ras Superfamily Assay); conditions: 20 μM compound; for KRas G12C mutant + SOS: % inh.: with SOS; for KRas G12C mutant: % inh.: without SOS
Method in brief: (§1)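 Ni-plate capture of His-tagged protein (10-30 μg/mL, o/n 4° C); cpd 20 μM or dilution series, 1% DMSO, 3 h RT ± Sos 556-1049 last h; 100 nM Cy-labelled GTP 45 min RT; 3× wash; fluorescence read.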

KRas G12D mutant = assay: as above; conditions: 20 μM compound; for KRas G12D mutant + SOS: % inh.: with SOS; for KRas G12D mutant: % inh.: without SOS
Method in brief: as §1

KRas Q61H mutant = assay: as above; conditions: 20 μM compound; for KRas Q61H mutant + SOS: % inh.: with SOS; for KRas Q61H mutant: % inh.: without SOS
Method in brief: as §1

KRas wild type = assay: as above; conditions: 20 μM compound; for KRas wild type + SOS: % inh.: with SOS; for KRas wild type: % inh.: without SOS
Method in brief: as §1

Rac-1 = target: T1, Rac-1 (Homo sapiens, UniProt P63000); assay: as above; conditions: read-out: Rac-1: % inh.
T1 construct: made in house
Method in brief: as §1

Rho-A = target: T2, Rho-A (Homo sapiens, UniProt P61586); assay: as above; conditions: read-out: Rho-A: % inh..
T2 construct: made in house
T2 sequence (P61586 whole entry): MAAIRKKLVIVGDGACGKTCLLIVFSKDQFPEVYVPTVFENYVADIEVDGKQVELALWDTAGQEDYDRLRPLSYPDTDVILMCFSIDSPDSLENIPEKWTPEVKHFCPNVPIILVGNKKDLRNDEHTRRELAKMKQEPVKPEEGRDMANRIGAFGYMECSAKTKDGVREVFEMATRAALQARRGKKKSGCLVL
Method in brief: as §1

KRas G12C mutant + SOS: % inh. (KRas G12C mutant)	KRas G12C mutant: % inh. (KRas G12C mutant)	KRas G12D mutant + SOS: % inh. (KRas G12D mutant)	KRas G12D mutant: % inh. (KRas G12D mutant)	KRas Q61H mutant + SOS: % inh. (KRas Q61H mutant)	KRas Q61H mutant: % inh. (KRas Q61H mutant)	KRas wild type + SOS: % inh. (KRas wild type)	KRas wild type: % inh. (KRas wild type)	inhibition at 20 µM (Rac-1) [%]	inhibition at 20 µM (Rho-A) [%]	Structure (SMILES)	% inh of Erk1/2 phosphorylation in Panc-1 (Erk1/2 phosphorylation)	inhibition at 10 µM (TNF-alpha) [%]
D (D = 76-100% inhibition)	D (D = 76-100% inhibition)	D (D = 76-100% inhibition)	D (D = 76-100% inhibition)	D (D = 76-100% inhibition)	D (D = 76-100% inhibition)	D (D = 76-100% inhibition)	D (D = 76-100% inhibition)	76 to 100	76 to 100	Cc1c(-c2ccn(C(C)C)n2)cn2nc(-c3nccn3C)nc(Nc3ccn(C)n3)c12 [Compound 61, 6-(1-Isopropyl-1H-pyrazol-3-yl)-5-methyl-2-(1-methyl-1H-imidazol-2-yl)-N-(1-methyl-1H-pyrazol-3-yl)pyrrolo[2,1-f][1,2,4]triazin-4-amine]	A* (1-25% activation)	1 to 24
C (C = 50-75% inhibition)	D (D = 76-100% inhibition)	D (D = 76-100% inhibition)	D (D = 76-100% inhibition)	D (D = 76-100% inhibition)	D (D = 76-100% inhibition)	D (D = 76-100% inhibition)	D (D = 76-100% inhibition)	76 to 100	76 to 100	CCn1ccc(-c2cn3nc(-c4nccn4C)nc(Nc4cc(OC)ncn4)c3c2C)n1 [Compound 64, 6-(1-Ethyl-1H-pyrazol-3-yl)-N-(6-methoxypyrimidin-4-yl)-5-methyl-2-(1-methyl-1H-imidazol-2-yl)pyrrolo[2,1-f][1,2,4]triazin-4-amine]	A (1-25% inhibition)	0
C (C = 50-75% inhibition)	D (D = 76-100% inhibition)	D (D = 76-100% inhibition)	D (D = 76-100% inhibition)	D (D = 76-100% inhibition)	D (D = 76-100% inhibition)	D (D = 76-100% inhibition)	D (D = 76-100% inhibition)	76 to 100	76 to 100	COc1ccc(-c2cn3nc(-c4nccn4C)nc(Nc4cc(OC)ncn4)c3c2C)cn1 [Compound 66, 6-(6-Methoxypyridin-3-yl)-N-(6-methoxypyrimidin-4-yl)-5-methyl-2-(1-methyl-1H-imidazol-2-yl)pyrrolo[2,1-f][1,2,4]triazin-4-amine]	C (50-84% inhibition)	1 to 24

Further lines, the molecule ahead of its results:

Structure (SMILES)	KRas G12C mutant + SOS: % inh. (KRas G12C mutant)	KRas G12C mutant: % inh. (KRas G12C mutant)	KRas G12D mutant + SOS: % inh. (KRas G12D mutant)	KRas G12D mutant: % inh. (KRas G12D mutant)	KRas Q61H mutant + SOS: % inh. (KRas Q61H mutant)	KRas Q61H mutant: % inh. (KRas Q61H mutant)	KRas wild type + SOS: % inh. (KRas wild type)	KRas wild type: % inh. (KRas wild type)	inhibition at 20 µM (Rac-1) [%]	inhibition at 20 µM (Rho-A) [%]	% inh of Erk1/2 phosphorylation in Panc-1 (Erk1/2 phosphorylation)	inhibition at 10 µM (TNF-alpha) [%]
Cc1c(-c2ccn(C(C)C)n2)cn2nc(-c3nccn3C)nc(Nc3nnco3)c12 [Compound 59, N-(6-(1-Isopropyl-1H-pyrazol-3-yl)-5-methyl-2-(1-methyl-1H-imidazol-2-yl)pyrrolo[2,1-f][1,2,4]triazin-4-yl)-1,3,4-oxadiazol-2-amine]	B (B = 26-49% inhibition)	C (C = 50-75% inhibition)	C (C = 50-75% inhibition)	D (D = 76-100% inhibition)	D (D = 76-100% inhibition)	D (D = 76-100% inhibition)	C (C = 50-75% inhibition)	C (C = 50-75% inhibition)	76 to 100	76 to 100	C (50-84% inhibition)	1 to 24
Cc1c(-c2ccn(C(C)C)n2)cn2nc(-c3nccn3C)nc(Nc3ncco3)c12 [Compound 60, N-(6-(1-Isopropyl-1H-pyrazol-3-yl)-5-methyl-2-(1-methyl-1H-imidazol-2-yl)pyrrolo[2,1-f][1,2,4]triazin-4-yl)oxazol-2-amine]	0 (0 = 0% inhibition)	A (A = 1-25% inhibition)	A (A = 1-25% inhibition)	A (A = 1-25% inhibition)	C (C = 50-75% inhibition)	B (B = 26-49% inhibition)	A (A = 1-25% inhibition)	A (A = 1-25% inhibition)	1 to 25	1 to 25	A (1-25% inhibition)	0
Cc1c(-c2ccn(C(C)C)n2)cn2nc(-c3nccn3C)nc(Nc3cnccn3)c12 [Compound 62, 6-(1-Isopropyl-1H-pyrazol-3-yl)-5-methyl-2-(1-methyl-1H-imidazol-2-yl)-N-(pyrazin-2-yl)pyrrolo[2,1-f][1,2,4]triazin-4-amine]	0 (0 = 0% inhibition)	A (A = 1-25% inhibition)	A (A = 1-25% inhibition)	B (B = 26-49% inhibition)	A (A = 1-25% inhibition)	A (A = 1-25% inhibition)	0 (0 = 0% inhibition)	A (A = 1-25% inhibition)	50 to 75	26 to 49	A (1-25% inhibition)	1 to 24
COc1cc(Nc2nc(-c3nccn3C)nn3cc(-c4ccn(C)n4)c(C)c23)ncn1 [Compound 63, N-(6-Methoxypyrimidin-4-yl)-5-methyl-2-(1-methyl-1H-imidazol-2-yl)-6-(1-methyl-1H-pyrazol-3-yl)pyrrolo[2,1-f][1,2,4]triazin-4-amine]	C (C = 50-75% inhibition)	D (D = 76-100% inhibition)	D (D = 76-100% inhibition)	D (D = 76-100% inhibition)	D (D = 76-100% inhibition)	D (D = 76-100% inhibition)	D (D = 76-100% inhibition)	D (D = 76-100% inhibition)	76 to 100	76 to 100	A (1-25% inhibition)	1 to 24
COc1cc(Nc2nc(-c3nccn3C)nn3cc(-c4cccc(OC)n4)c(C)c23)ncn1 [Compound 65, 6-(6-Methoxypyridin-2-yl)-N-(6-methoxypyrimidin-4-yl)-5-methyl-2-(1-methyl-1H-imidazol-2-yl)pyrrolo[2,1-f][1,2,4]triazin-4-amine]	A (A = 1-25% inhibition)	C (C = 50-75% inhibition)	C (C = 50-75% inhibition)	C (C = 50-75% inhibition)	C (C = 50-75% inhibition)	C (C = 50-75% inhibition)	B (B = 26-49% inhibition)	C (C = 50-75% inhibition)	76 to 100	76 to 100	A (1-25% inhibition)	1 to 24
Cc1c(-c2ccn(C(C)C)n2)cn2nc(-c3nccn3C)nc(Nc3nnc(C4CC4)o3)c12 [Compound 67, 5-Cyclopropyl-N-(6-(1-isopropyl-1H-pyrazol-3-yl)-5-methyl-2-(1-methyl-1H-imidazol-2-yl)pyrrolo[2,1-f][1,2,4]triazin-4-yl)-1,3,4-oxadiazol-2-amine]	B (B = 26-49% inhibition)	C (C = 50-75% inhibition)	C (C = 50-75% inhibition)	C (C = 50-75% inhibition)	C (C = 50-75% inhibition)	C (C = 50-75% inhibition)	C (C = 50-75% inhibition)	C (C = 50-75% inhibition)	50 to 75	76 to 100	D (85-100% inhibition)	50 to 74
Cc1c(-c2ccn(C(C)C)n2)cn2nc(-c3nccn3C)nc(Nc3cc(C4CC4)n[nH]3)c12 [Compound 68, N-(3-Cyclopropyl-1H-pyrazol-5-yl)-6-(1-isopropyl-1H-pyrazol-3-yl)-5-methyl-2-(1-methyl-1H-imidazol-2-yl)pyrrolo[2,1-f][1,2,4]triazin-4-amine]	D (D = 76-100% inhibition)	D (D = 76-100% inhibition)	D (D = 76-100% inhibition)	D (D = 76-100% inhibition)	D (D = 76-100% inhibition)	D (D = 76-100% inhibition)	D (D = 76-100% inhibition)	D (D = 76-100% inhibition)	76 to 100	76 to 100	D* (85-100% activation)	25 to 49
